tested on: A549 cells; assay: MTT cytotoxicity assay, A549 lung cancer cells; type: cell-based, human; details: Homo sapiens, A549, 72 h, MTT test, 72 h of drug treatment; read-out: A549 IC50 (μM) ± SD
Method: (§1) Compounds active against at least one kinase among EGFR and class III RTKs were evaluated for their cytotoxic properties against two different human cancer cell lines, namely non small cells A549 lung cancer cells (sensitive to EGFR inhibitors)[46] and pancreatic BxPC3 adenocarcinoma (sensitive to both PDGFRβ and EGFR inhibitors)[47][48] cells. […] The results, expressed as IC50 values (μM) calculated from the dose-survival curves obtained after 72 h of drug treatment from the MTT test, are reported in Table 1.
(§2) All compounds, except derivative 27, were dissolved in DMSO just before the experiment, and a calculated amount of drug solution was added to the cell growth medium to a final solvent concentration of 0.5%, which had no discernible effect on cell killing. Compound 27 was dissolved in a 0.9% NaCl solution just before the experiment.
(§3) Human lung (A549), breast (MCF-7), pancreas (BxPC3), and colon (LoVo) carcinoma cell lines along with melanoma (A375) were obtained from American Type Culture Collection (ATCC, Rockville, MD). Human non-tumor embryonic kidney HEK293 cells were obtained from European Collection of Cell Cultures (ECACC, Salisbury, UK). Human cervical carcinoma A431cells were kindly provided by Prof. F. Zunino (Division of Experimental Oncology B, Istituto Nazionale dei Tumori, Milan, Italy). Human ovarian cancer 2008 cells were kindly provided by Prof. G. Marverti (Dept. of Biomedical Science of Modena University, Italy). Cell lines were maintained in the logarithmic phase at 37 °C in a 5% carbon dioxide atmosphere using the following culture media containing 10% fetal calf serum (Euroclone, Milan, Italy), antibiotics (50 units ∙ mL^−1 penicillin and 50 μg ∙ mL^−1 streptomycin) and 2 mM l-glutamine: i) RPMI-1640 medium (Euroclone) for MCF-7, A431, BxPC3 and 2008 cells; ii) F-12 HAM’S (Sigma Chemical Co.) for A549 and LoVo cells; iii) D-MEM medium (Euroclone) for HEK293 cells.
(§4) The growth inhibitory effect towards human cell lines was evaluated by means of MTT (tetrazolium salt reduction) assay. Briefly, 3–8 ∙ 10^3 cells/well, dependent upon the growth characteristics of the cell line, were seeded in 96-well microplates in growth medium (100 μL) and then incubated at 37 °C in a 5% carbon dioxide atmosphere. After 24 h, the medium was removed and replaced with a fresh one containing the test compound at the appropriate concentration. Triplicate cultures were established for each treatment. After 72 h, each well was treated with 10 μL of a 5 mg ∙ mL-1 MTT (3-(4,5-dimethylthiazol-2-yl)-2,5-diphenyltetrazolium bromide) saline solution, and after 5 h additional incubation, 100 μL of a sodium dodecylsulfate (SDS) solution in HCl 0.01 M were added. After overnight incubation, the inhibition of cell growth induced by the tested complexes was detected by measuring the absorbance of each well at 570 nm using a Bio-Rad 680 microplate reader (Bio-Rad, Hercules, CA). Mean absorbance for each drug dose was expressed as a percentage of the control untreated well absorbance and plotted vs drug concentration.

SMILES | IC50
Brc1cccc(Nc2cc(Nc3cccc(Br)c3)ncn2)c1 [Compound 9] | > 50 µM
Oc1ccc(Nc2cc(Nc3ccc(O)cc3)ncn2)cc1 [Compound 12] | > 50 µM
Oc1ccc(Nc2ncncc2-c2ccccc2)cc1 [Compound 24] | 12.1 ± 1.99 µM
Nc1ccc(Nc2ncncc2-c2ccccc2)cc1 [Compound 25] | 26.1 ± 4.55 µM
O=C(Nc1ccccc1)Nc1ccc(Nc2ncncc2-c2ccccc2)cc1 [Compound 26] | 28.9 ± 5.86 µM
CCN(CC)CCNC(=O)c1c(C)[nH]c(/C=C2\C(=O)Nc3ccc(F)cc32)c1C [SU, sunitinib, reference compound] | 6.22 ± 1.84 µM

same assay, conditions: ratio between IC50 of sunitinib and IC50 of tested compound, A549

SMILES | Potency relative to SU (A549)
Brc1cccc(Nc2cc(Nc3cccc(Br)c3)ncn2)c1 [Compound 9] | <0.12
Oc1ccc(Nc2cc(Nc3ccc(O)cc3)ncn2)cc1 [Compound 12] | <0.12
Oc1ccc(Nc2ncncc2-c2ccccc2)cc1 [Compound 24] | 0.51
Nc1ccc(Nc2ncncc2-c2ccccc2)cc1 [Compound 25] | 0.24
O=C(Nc1ccccc1)Nc1ccc(Nc2ncncc2-c2ccccc2)cc1 [Compound 26] | 0.21

tested on: BxPC3 cells; assay: MTT cytotoxicity assay, BxPC3 pancreatic adenocarcinoma cells; type: cell-based, human; details: Homo sapiens, BXPC-3; MTT test, 72 h of drug treatment; read-out: BxPC3 IC50 (μM) ± SD
Method: as §1, §2, §3, §4

SMILES | IC50
Brc1cccc(Nc2cc(Nc3cccc(Br)c3)ncn2)c1 [Compound 9] | > 50 µM
Oc1ccc(Nc2cc(Nc3ccc(O)cc3)ncn2)cc1 [Compound 12] | > 50 µM
Oc1ccc(Nc2ncncc2-c2ccccc2)cc1 [Compound 24] | 16.4 ± 4.22 µM
Nc1ccc(Nc2ncncc2-c2ccccc2)cc1 [Compound 25] | 27.9 ± 5.28 µM
O=C(Nc1ccccc1)Nc1ccc(Nc2ncncc2-c2ccccc2)cc1 [Compound 26] | 30.9 ± 4.18 µM
CCN(CC)CCNC(=O)c1c(C)[nH]c(/C=C2\C(=O)Nc3ccc(F)cc32)c1C [SU, sunitinib, reference compound] | 5.05 ± 1.34 µM

same assay, conditions: ratio between IC50 of sunitinib and IC50 of tested compound, BxPC3

SMILES | Potency relative to SU (BxPC3)
Brc1cccc(Nc2cc(Nc3cccc(Br)c3)ncn2)c1 [Compound 9] | <0.10
Oc1ccc(Nc2cc(Nc3ccc(O)cc3)ncn2)cc1 [Compound 12] | <0.10
Oc1ccc(Nc2ncncc2-c2ccccc2)cc1 [Compound 24] | 0.31
Nc1ccc(Nc2ncncc2-c2ccccc2)cc1 [Compound 25] | 0.18
O=C(Nc1ccccc1)Nc1ccc(Nc2ncncc2-c2ccccc2)cc1 [Compound 26] | 0.16

tested on: HEK293 cells; assay: MTT cytotoxicity assay, non-tumor HEK293 cells; type: cell-based, human; details: Homo sapiens, HEK293; MTT test, 72 h, non-tumor cells; read-out: HEK293 IC50 (μM) ± SD
Method: F. Zunino (Division of Experimental Oncology B, Istituto Nazionale dei Tumori, Milan, Italy).
The growth inhibitory effect towards human cell lines was evaluated by means of MTT (tetrazolium salt reduction) assay. […] Triplicate cultures were established for each treatment.

SMILES | IC50
CCN(CC)CCNC(=O)c1c(C)[nH]c(/C=C2\C(=O)Nc3ccc(F)cc32)c1C [SU, sunitinib, reference compound] | 12.2 ± 2.83 µM

tested on: 2008 cells; assay: MTT cytotoxicity assay, 2008 ovarian cancer cells; type: cell-based; details: Homo sapiens; MTT test, 72 h; read-out: 2008 IC50 (μM) ± SD
Method: (§5) The cytotoxic profile of 19 and 27 was assessed on a wider panel of human tumor cell lines including also examples of breast (MCF-7), cervical (A431), colorectal (HCT-15), and ovarian (2008) cancers as well as melanoma (A375), besides lung (A549) and pancreatic (BxPC3) cancer cells. IC50 values, calculated from the dose-survival curves obtained after 72 h of drug treatment from the MTT test, are reported in Table 2. […] Both compounds were endowed with a cytotoxic potency higher than that of SU, eliciting IC50 values in the low micromolar range.
as §2
(§6) Human lung (A549), breast (MCF-7), pancreas (BxPC3), and colon (LoVo) carcinoma cell lines along with melanoma (A375) were obtained from American Type Culture Collection (ATCC, Rockville, MD). Human non-tumor embryonic kidney HEK293 cells were obtained from European Collection of Cell Cultures (ECACC, Salisbury, UK). Human cervical carcinoma A431cells were kindly provided by Prof. F. Zunino (Division of Experimental Oncology B, Istituto Nazionale dei Tumori, Milan, Italy). Human ovarian cancer 2008 cells were kindly provided by Prof. G. Marverti (Dept. of Biomedical Science of Modena University, Italy). […]
(§7) The growth inhibitory effect towards human cell lines was evaluated by means of MTT (tetrazolium salt reduction) assay. […] After overnight incubation, the inhibition of cell growth induced by the tested complexes was detected by measuring the absorbance of each well at 570 nm using a Bio-Rad 680 microplate reader (Bio-Rad, Hercules, CA). Mean absorbance for each drug dose was expressed as a percentage of the control untreated well absorbance and plotted vs drug concentration.

SMILES | IC50
CCN(CC)CCNC(=O)c1c(C)[nH]c(/C=C2\C(=O)Nc3ccc(F)cc32)c1C [SU, sunitinib, reference compound] | 3.52 ± 1.22 µM

tested on: MCF-7 cells; assay: MTT cytotoxicity assay, MCF-7 breast cancer cells; type: cell-based; details: Homo sapiens, MCF7; MTT test, 72 h; read-out: MCF-7 IC50 (μM) ± SD
Method: as §5, §2, §6, §7

SMILES | IC50
CCN(CC)CCNC(=O)c1c(C)[nH]c(/C=C2\C(=O)Nc3ccc(F)cc32)c1C [SU, sunitinib, reference compound] | 2.58 ± 0.85 µM

tested on: LoVo cells; assay: MTT cytotoxicity assay, LoVo colon carcinoma cells; type: cell-based; details: Homo sapiens, MTT test, 72 h, read-out: LoVo IC50 (μM) ± SD
Method: as §5, §2, §6, §7

SMILES | IC50
CCN(CC)CCNC(=O)c1c(C)[nH]c(/C=C2\C(=O)Nc3ccc(F)cc32)c1C [SU, sunitinib, reference compound] | 8.18 ± 2.67 µM

tested on: A375 cells; assay: MTT cytotoxicity assay, A375 melanoma cells; type: cell-based; details: Homo sapiens, A-375; MTT test, 72 h; read-out: A375 IC50 (μM) ± SD
Method: as §5, §2, §6, §7

SMILES | IC50
CCN(CC)CCNC(=O)c1c(C)[nH]c(/C=C2\C(=O)Nc3ccc(F)cc32)c1C [SU, sunitinib, reference compound] | 8.25 ± 2.88 µM

tested on: panel of 48 kinases; assay: KinomeScan primary screening (POC) at 10 μM; type: binding, human; details: POC values
Text: Synthesized compounds were screened against a panel of 48 kinases selected within the ScanEDGE subset of DiscoverX (http://www.discoverx.com/services/drug-discovery-development-services/kinase-profiling/kinomescan/scanedge). The ScanEDGE includes 97 kinases and is an economical approach to assess compounds selectivity throughout the human kinome. All the wt-TKs along with some relevant mutants of Abl1 (T315I) and of EGFR (L858R and L858R/T790M) were chosen. The remaining 18 targets (3 Tyrosine Kinases-Like, TKLs; 15 Serine-Threonine Kinases, STKs) were selected among the remaining kinases in the ScanEDGE subset on the basis of their well established role in cancer (see Fig. S2 for a graphical representation of the selected kinases with reference to the kinome tree. Some references highlighting the role of each kinase in cancer are also reported in Table S3).
The compounds were evaluated using the KinomeScan™ platform (http://www.discoverx.com/services/drug-discovery-development-services/kinase-profiling/kinomescan), that measures the ability of the test compound to disrupt the complex between a high affinity ATP-mimic probe immobilized on a solid support and the kinase of interest. The KinomeScan is a very helpful technology for the fast and reliable screening of a number of compounds against a wide and customizable panel of kinases. Besides, it is not based on the use of hazardous radioactive ^32P-ATP and has a very low rate of false positive (<1%)[44]. The screening platform outputs a “Percent of Control” (POC) value, statistically correlated to the dissociation constant (Kd) value (http://www.discoverx.com/tools-resources/leadhunter-study-reports-data-analysis), for each pair of kinase/ligand. The POC is calculated as reported in equation (1):
Where: test compound signal = amount of kinase still binding the probe after treatment with test compound; negative control signal = amount of kinase still binding the probe after treatment with DMSO (100% control); positive control signal = amount of kinase still binding the probe after treatment with control compound (0% control).
The compounds were tested at high concentration (10 μM), in order to highlight not only the main target but also the off-targets. The results of the preliminary screening are reported as heat map (Fig. 4; see also Table S4 for all the measured values), in which the compounds are grouped on the basis of the 6 or 5 substituent at the pyrimidine ring.

SMILES | Selectivity profile (kinases targeted) in primary screening
Oc1ccc(Nc2cc(Nc3ccc(O)cc3)ncn2)cc1 [Compound 12] | EGFR; calss III RTK; AXL; TRKA; JAK3
Cc1cccc(Nc2cc(-c3ccccc3)ncn2)c1 [Compound 13] | Inactive
Cc1cccc(Nc2ncncc2-c2ccccc2)c1 [Compound 20] | Inactive
O=C(Nc1ccccc1)Nc1ccc(Nc2ncncc2-c2ccccc2)cc1 [Compound 26] | class III RTK

tested on: not given; assay: not given; details: not given

melting point | SMILES
243 °C | Brc1cccc(Nc2cc(Nc3cccc(Br)c3)ncn2)c1 [Compound 9]
272 °C | Cc1cccc(Nc2cc(-c3ccccc3)ncn2)c1 [Compound 13]
118 °C | Oc1ccc(Nc2ncncc2-c2ccccc2)cc1 [Compound 24]
